“And” between values parts separate entries of the source, which are not always exact repeats. Equal entries are not always repeated. “Also recorded” adds a separate entry of the source.
Columns and labels:
[1] = Plasma protein binding of CDU by equilibrium dialysis; assay type: in vitro ADME, rat
Protocol: Protein binding was determined by equilibrium dialysis. Various amounts of CDU were added to drug free rat plasma to yield CDU concentrations ranging from 0.5 to 100 μg/ml. Plexiglass dialysis cells and dialysis membrane (Spectrapor II, Spectrum Medical Industries, Los Angeles, Calif.) were used. Plasma (0.8 ml) containing different concentrations of CDU was dialyzed against 0.8 ml of isotonic sodium phosphate buffer, pH 7.4, in a shaking water bath at 37° C. for 16 hours. The post-dialysis plasma and buffer volumes were measured and samples were frozen at -20° C. until analysis. The binding data was corrected for fluid shifts that occurred during dialysis. Experiments were performed in duplicate.
This concentration range encompassed those observed following intravenous administration of 25 mg/kg CDU to rats. Assuming that the lipophilic compound CDU is bound predominantly by hydrophobic interactions to albumin, the equilibrium association constant for the protein binding of CDU was approximately 4×10^4 M^-1.

[2] = Pharmacokinetics of CDU in plasma after intravenous administration of 25 mg/kg to rats; assay type: in vivo, Sprague-Dawley rats
Protocol: 5-Carboranyl-2'-deoxyuridine (CDU) was synthesized by the method of Yamamoto, et al. The chemical purity, confirmed by ^1 H NMR spectral and high-pressure liquid chromatography (HPLC) analysis, was greater than 98%. For intravenous administration, CDU was dissolved in dimethylsulfoxide (DMSO). Internal standard, progesterone, and β-glucuronidase were purchased from Sigma Chemical Company (St. Louis, Mo.). Methanol, HPLC grade, and all other chemicals, analytical grade, were obtained from J. T. Baker (Phillipsburg, N.J.). Partition coefficients were determined one hour after administration.
Five adult male Sprague-Dawley (Harlan Laboratories, Indianapolis, Ind.) rats weighing 303±8 g (mean±SD) were used for the pharmacokinetic study. Rats were housed in a 12 hour light/12 hour dark, constant temperature (22° C.) environment with free access to standard laboratory chow and water. Animals were acclimatized to this environment for one week before the experiment. External jugular vein cannulas were implanted under ketamine:acepromazine:xylazine (50:3.3:3.3 mg/kg) anesthesia the day before the experiment. Rats were fasted overnight, however, water was available ad libitum.
On the morning of the experiment, rats were placed in individual metabolism cages. CDU […]) was administered intravenously in 0.1 ml of DMSO to the rats over a one minute period. Blood samples (0.35 ml) were collected prior to and at […], 2, 3, 4, 5, 6, 7 and 8 hour after CDU administration from the cannula into heparinized polypropylene microcentrifuge tubes. Blood volume was replaced with an equal volume of normal saline. Blood samples were immediately centrifuged at 2000 g for 5 minutes and plasma was separated and frozen at -20° C. until analysis. Urine was collected for 24 hour following CDU administration. Urine volume was measured and samples were frozen at -20° C. until analysis.
(§1) Concentrations of CDU in plasma, brain, and urine were determined by HPLC. For the determination of CDU in brain, the brain tissue was homogenized in a 1:2 (g:ml) ratio with isotonic sodium phosphate buffer, pH 7.4. To 200 μl of plasma or brain homogenate in a glass test tube, 50 μl of internal standard (20 μg/ml progesterone) and 5 ml of methylene chloride was added. Tubes were shaken for 15 minutes at low speed on a shaker, centrifuged for 5 minutes at 2000 rpm, and the plasma layer was aspirated off using a vacuum system. The remaining methylene chloride was transferred to a glass culture tube and evaporated to dryness under a stream of nitrogen gas at ambient temperature. The residue was reconstituted with 250 μl of methanol and injected onto HPLC system.
Chromatography was performed on a Hypersil ODC column (5 μm particle size, 4.6×150 mm; Alltech Associates Inc., Deerfield, Ill.) with an online guard column and an isocratic mobile phase of 65% methanol in 10 mM monobasic potassium phosphate, pH 6.3 at a flow rate of 1.5 ml/min. Compounds were detected at a UV wavelength of 274 nm with a detector range setting of 0.005 absorbance units, full scale.
The retention times of CDU and internal standard were 4.7 and 8.6 min, respectively. Sample CDU concentrations were calculated from the slope of calibration plots of the peak area ratio of CDU:internal standard versus standard CDU concentrations. The slopes and intercepts were generated using weighted (1/x^2) least-squares regression analysis. Standard curves were linear in the range of 0.1 μg/ml to 50 μg/ml. The intra- and inter-day relative standard deviations over the range of standard concentrations in all biological media were less than 10%. The extraction recoveries of CDU and progesterone were 99% and 95%, respectively.
Area/moment analysis was used to calculate pharmacokinetic parameters of CDU. […]

[3] = Brain uptake of CDU after loading dose and three hour intravenous infusion; assay type: in vivo, Sprague-Dawley rats
Protocol: Two adult male sprague-dawley rats weighing 305 and 312 g were used to examine the brain uptake of CDU. A loading dose of 5 mg/kg CDU in […] of DMSO was administered intravenously over a one minute period followed by three hour infusion of CDU at the rate of 5 mg/h/kg (50 μl/h) using an infusion […]. At the end of infusion blood samples were collected and rats were sacrificed. The brains were dissected and frozen at -20° C. until analysis.
as §1

[4] = 25 mg/kg i.v., rats, total plasma concentrations, 25 mg/kg
[5] = 25 mg/kg i.v., individual rat, 25 mg/kg
[6] = 25 mg/kg i.v., individual rat, unbound
[7] = 25 mg/kg i.v., mean of five rats
[8] = 25 mg/kg i.v., mean of five rats, unbound
[9] = i.v. infusion to steady state, each of two rats, 5 mg/kg, 180 min

## 5-carboranyl-2'-deoxyuridine [CDU]
[1]; 0.5 μg/ml to 100 μg/ml
  concentration dependence of plasma protein binding (in words): independent of the nucleoside concentration; also recorded: in a linear manner
[1]; 0.5 μg/ml to 100 μg/ml, rat plasma, 960 min
  bound to plasma proteins: 95.5%
[1]; assuming binding predominantly to albumin, 960 min
  equilibrium association constant for the protein binding: approximately 4×10^4 M^-1
[1]; rat plasma, 37° C., pH 7.4, 960 min
  average fraction bound to the plasma proteins: 0.95±0.02
[2]; 25 mg/kg i.v., rats
  decline of plasma concentrations (in words): declined in a biexponential fashion
  volume of distribution based on unbound CDU concentrations: 15.5 kg⁻¹
[2]; 25 mg/kg i.v., rats, average
  clearance based on unbound plasma CDU concentrations (CLf): 255.5 ± 74 mL/min/kg and 255 mL/min/kg
[2]; 25 mg/kg i.v., rats, mean±SD
  terminal half-life: 1.26 ± 0.28 h
[2]; [4]
  steady-state volume of distribution: 0.70 ± 0.23 kg⁻¹ and 0.7 kg⁻¹
  total clearance: 11.5 ± 3.3 mL/min/kg and 11.5 mL/min/kg
[2]; [5]
  AUC, individual rats: 32.39 mg h 1^-1 and 25.14 mg h 1^-1 and 44.68 mg h 1^-1 and 42.49 mg h 1^-1 and 47.28 mg h 1^-1
  CLT, individual rats: 0.77 1 h^-1 kg^-1 and 0.99 1 h^-1 kg^-1 and 0.56 1 h^-1 kg^-1 and 0.59 1 h^-1 kg^-1 and 0.53 1 h^-1 kg^-1
  MRT, individual rats: 1.17 h and 0.51 h and 0.81 h and 1.64 h and 1.24 h
  V33 (steady-state volume of distribution), individual rats: 0.90 1 kg^-1 and 0.51 1 kg^-1 and 0.45 1 kg^-1 and 0.97 1 kg^-1 and 0.65 1 kg^-1
  t1/2, individual rats: 1.46 h and 1.20 h and 0.81 h and 1.54 h and 1.28 h
[2]; [6]
  CLf, individual rats: 17.15 1 h^-1 kg^-1 and 22.33 1 h^-1 kg^-1 and 12.36 1 h^-1 kg^-1 and 13.07 1 h^-1 kg^-1 and 11.76 1 h^-1 kg^-1
  Vss,f, individual rats: 20.02 1 kg^-1 and 11.29 1 kg^-1 and 10.09 1 kg^-1 and 21.56 1 kg^-1 and 14.53 1 kg^-1
[2]; [7]
  AUC, mean: 38.39 mg h 1^-1
  MRT, mean: 1.07 h
  V33 (steady-state volume of distribution), mean: 0.70 1 kg^-1
  t1/2, mean: 1.26 h
[2]; [8]
  CLf, mean: 15.33 1 h^-1 kg^-1
  Vss,f, mean: 15.50 1 kg^-1
[2]; estimated, unbound drug
  metabolic intrinsic clearance of free drug: 333 mL/min/kg
[3]; i.v. infusion to steady state, each of two rats
  brain:unbound plasma CDU ratio: 10.26 and 7.87
[3]; [9]
  brain CDU concentration: 2.77 µg/mL and 1.81 µg/mL
  brain:total plasma CDU concentration ratio: 0.47 and 0.36
  total plasma CDU concentration: 5.92 µg/mL and 5.01 µg/mL
[3]; i.v. infusion to steady state, two rats, 5 mg/kg, 180 min
  brain concentrations as % of total plasma CDU concentrations: 36 to 47%
[3]; unbound compared to total
  brain:plasma ratio based on unbound vs total plasma concentrations: 20 fold

From patent US5872107A, “Treatment of urogenital cancer with boron neutron capture therapy” (Emory University, priority 1997, dated 1999)
